What was measured:
HIV-Bal in HFA = assay: Cytokine pre-stimulation and HIV-Bal replication in human fetal astrocytes, p24 ELISA; format: cell-based; conditions: 24 h pre-stimulation, p24 day 7
Description: (§1) U87MG (A) and HFA (B) were pre-stimulated with increasing doses of either GM-CSF or IFNγ for 24 h followed by HIV-BAL infection for 24 hours. HIV replication was determined by measuring HIV p24 levels by ELISA seven days post-infection. The dotted line represents basal level of HIV infection of astrocytes without cytokine pre-treatment. Data is representative of three experiments performed in quadruplicate. Error bars represent standard deviations of the mean. Asterisks denote significant values (p<0.05) in comparison to untreated cultures as evaluated by analysis of variance.
(§2) To determine if pre-stimulation of astrocytes primes astrocytes, for productive HIV infection, U87MG and HFA were pre-treated for 24 hours with TNFγ, GM-CSF, or IFNγ at various concentrations (0-1000 ng/ml) then infected with HIV-Bal at 10 ng of HIV p24/1×10^6 cells for 24 hours. The cells were then washed extensively or trypsinized to remove bound virus and propagated in the presence of the respective cytokine concentration. HIV infection was monitored by p24 ELISA seven days post-infection. […]
(§3) IFN-γ Treatment and HIV Infection. […] HIV infection was monitored at day 7 postinfection by measuring p24 levels by conventional enzyme-linked immunosorbent assay (ELISA) (National Cancer Institute, Frederick, Md.).

[1] = tested on: CD4, hMR, CCR1, D6 on U87MG; assay: HIV receptor and chemokine co-receptor expression on U87MG by flow cytometry; format: cell-based, human
Description: (§4) U87MG (A) and HFA (B) were left untreated or treated GM-CSF (50 ng/ml) or IFNγ (100 ng/ml) for 24 h. Expression of receptors on the x-axis was measured by flow cytometry. Isotype refers to mouse IgG. Data is representative of three experiments. Error bars represent standard deviation of the mean. (C). IFNγ up-regulates D6 on U87MG cells. U87MG were left untreated or treated with IFNγ. After 3 days, the cells were immunostained with anti-D6 or isotype antibodies. The first histogram (peak) represents isotype control; the dark shaded histogram represents untreated cultures, and the third histogram (peak) represents IFNγ-treated cultures. Data is typical of quadruplet experiments.
(§5) Because IFNγ was a potent cytokine in inducing HIV infection of astrocytes, it was determined whether IFNγ treatment modulated key HIV receptors CD4, human mannose receptor D6 and co-receptors (CCR1, CCR2, CCR3, CXCR4, and CCR5) for HIV infection. U87MG is human mannose receptor (hMR) […] (FIG. 5). However, hMR was not detected on HFA, which may be regulated by the differentiation stage of the HFA (FIG. 5 (B)). CD4 and hMR expression in both U87MG and HFA was not augmented by IFNγ or GM-CSF (FIG. 5(A)-(B)). […] HFA were positive for CXCR4 (12%), but its expression was not augmented by GM-CSF or IFNγ treatment (FIG. 5B). IFNγ was reported to enhance CXCR4 and CCR5 expression on simian adult astrocytes, which is in contrast to data on human fetal astrocytes highlighting a discrepancy between simian adult and human fetal astrocytes. […] Infection of U87MG and HFA with a T-tropic isolate (IIIB), while it was productive, was not enhanced by cytokine pre-treatment. This may be a consequence of the laboratory adapted HIV IIIB, therefore primary T-tropic or dual tropic strains may still be responsive to IFNγ pre-treatment of astrocytes. Recently, the CC chemokine receptor D6 was identified as a functional co-receptor for primary HIV infection of astrocytes.

HIV-Bal in U87MG = assay: Cytokine pre-stimulation and HIV-Bal replication in U87MG, p24 ELISA; format: cell-based; conditions: pre-stimulation at 10 ng/ml, p24 day 7
Description: as §1, §2, §3

[2] = tested on: IFNγ, GM-CSF and TNFγ receptors on U87MG; assay: Cytokine receptor expression on U87MG by flow cytometry; format: cell-based, human; conditions: 24-hour treatment
Description: U87MG (A) or HFA (B) were left untreated or treated with GM-CSF (50 ng/ml), IFNγ100 ng/ml) or TNFγ100 ng/ml). […] Percent expression of GM-CSF receptor (R), IFNγR, and TNFγR was measured 24 hours post-stimulation by flow cytometry. Data is representative of three experiments. Error bars represent standard deviations of the mean.
Prior to evaluating if GM-CSF, IFNγ, and TNFγ can augment HIV replication of astrocytes, a question was whether U87MG and HFA express the respective cytokine receptors. U87MG and HFA were treated with or without the respective cytokine for 24 hours and cytokine receptor expression was evaluated by flow cytometry. Approximately 35% of U87MG expressed the IFNγ receptor and a low level of GM-CSF and TNFγ receptors (<8%; FIG. 3A). […] Untreated HFA expressed only low levels of IFNγ receptor (6%) and this expression was abrogated with IFNγ treatment. GM-CSF and TNFγ receptors were not expressed on HFA.

CD4, hMR, CXCR4 on HFA = assay: HIV receptor and chemokine co-receptor expression on HFA by flow cytometry; format: cell-based, human
Description: as §4, §5

HIV IIIB = HIV IIIB replication in stimulated PBMCs, p24 ELISA; format: cell-based; set-up: dose or concentration left out as unconfirmed; conditions: ALLN at either 5 or 25, p24 day 7, vs non-ALLN treated
HIV 302151 (93US151) = assay: Primary HIV isolate 302151 replication in stimulated PBMCs, p24 ELISA; format: cell-based; conditions: ALLN at either 5 or 25, p24 day 7, vs non-ALLN treated

In the case of “GM-CSF: cytokine secreted by glial cells; used to pre-stimulate astrocytes”, the “Induction of HIV replication” value (HIV-Bal in HFA) is reported as “no effect”, the “CD4 and hMR expression” value [1] is reported as “not augmented” and the “Up-regulation of CCR1 expression” value ([1]; 24 h treatment) is reported as “no effect”. For the same substance, the “Induction of HIV replication” value (HIV-Bal in U87MG) was 5 fold, the “Effect on respective cytokine receptor expression” value [2] was “neither GM-CSF nor TNFγ treatments had an effect” and the “CD4 and hMR expression” value (CD4, hMR, CXCR4 on HFA) was “not augmented”. For the same substance, the CXCR4 expression (CD4, hMR, CXCR4 on HFA; untreated 12%) was “not augmented”.

In the case of “N-acetyl-Leu-Leu-norleucinal [ALLN peptide]”, the “Induction of HIV IIIB replication” value (HIV IIIB) is reported as “three” and the “Induction of HIV 30215 replication” value (HIV 302151 (93US151)) is reported as “five-fold”.

Reference: patent US20080193563A1, “HARNESSING WNT SIGNALING TO RESTRICT HIV REPLICATION” (priority 2006, published 2008)
